Measured values as given in publication PMC3172300, “Modulation of Catalytic Activity in Multi-Domain Protein Tyrosine Phosphatases” (PLoS ONE, 2011).
Like-named read-outs stand apart in the source and are kept apart here. Square brackets hold non-standard residues; d marks the D form. Ends that are not written are not given here. Peptide text beside a SMILES is read from it. pY = N[C@@H](Cc1ccc(OP(=O)(O)O)cc1)C(=O)O

Key:
[1] = target: T1, DLAR D1D2 (Drosophila melanogaster, UniProt P16621); assay: Dephosphorylation of phosphotyrosine peptides (malachite green), DLAR D1D2; type: biochemical; settings: for Km / Vmax / Kcat / Kcat/Km: 0.01 µM protein; for Km / Kcat / Kcat/Km: 25 mM citrate pH 6.0, 15 min at 25°C, malachite green; for Vmax: 25 mM citrate buffer pH 6.0, 100 mM NaCl, 2 mM DTT, 15 min at 25°C, Biomol Green, 650 nm, Michaelis-Menten fit; for substrate preference: order of peptide substrates, DLAR D1D2
T1 construct: DLAR 1448-2029; His tag (pET-15b or pET-22b); made in house; host or cells: E. coli BL21(DE3)
T1 sequence (P16621 1448-2029): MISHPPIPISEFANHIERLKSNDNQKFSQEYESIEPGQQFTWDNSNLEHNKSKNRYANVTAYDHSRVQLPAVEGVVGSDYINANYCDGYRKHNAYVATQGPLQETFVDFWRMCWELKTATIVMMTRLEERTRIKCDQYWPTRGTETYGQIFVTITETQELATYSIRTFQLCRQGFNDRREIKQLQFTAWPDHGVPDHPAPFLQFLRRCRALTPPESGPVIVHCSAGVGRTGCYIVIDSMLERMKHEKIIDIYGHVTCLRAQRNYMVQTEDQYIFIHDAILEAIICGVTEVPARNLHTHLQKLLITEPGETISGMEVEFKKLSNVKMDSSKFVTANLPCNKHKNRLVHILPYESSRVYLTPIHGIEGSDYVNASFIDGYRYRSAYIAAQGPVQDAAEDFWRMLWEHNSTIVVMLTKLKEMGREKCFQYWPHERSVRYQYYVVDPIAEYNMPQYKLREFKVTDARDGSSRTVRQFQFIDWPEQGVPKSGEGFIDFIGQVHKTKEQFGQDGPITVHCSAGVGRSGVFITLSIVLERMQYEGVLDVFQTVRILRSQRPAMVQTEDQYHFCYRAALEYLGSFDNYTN
Excerpt: (§1) Substrates of PTPs characterized thus far include the activation loop segments of various kinases and regulatory loops of other signaling proteins. Suitably designed peptide substrates mimic the physiologically relevant substrates of PTPs. In the present study, peptide substrates were designed for DLAR for which more information was available on its interacting partners. […] The five peptides were chosen based on their distinct charge distributions around the central phosphotyrosine residue. The phosphorylated as well as non-phosphorylated peptides were obtained from GL Bioscience, China. The peptides were >95% pure and were used after a single round of desalting using a Sephadex G25 column (GE Healthcare). The concentration of the peptide samples for biochemical studies was ascertained by UV absorption at 268 nm for the pY residue.
(§2) Phosphatase activity of the recombinant PTP domains was determined by using para-Nitrophenylphosphate (pNPP), a small molecule generic substrate, as well as phosphotyrosine containing peptides. The pNPP assay was performed as reported previously, with a modification in the buffer composition (25 mM Citrate, Glycine and HEPES (CGH), pH 6.5, 100 mM NaCl and 2 mM DTT). Phosphatase activity with the phosphotyrosine peptides was ascertained by the malachite green reaction as described for PTPs previously. Briefly, the reaction mixture comprised of 0.01 µM protein incubated with increasing concentrations of different peptides in 25 mM citrate buffer pH 6.0, 100 mM NaCl and 2 mM DTT for 15 min at 25°C. The reaction was stopped by the addition of the Biomol Green reagent (Enzo Life Sciences) and the colour developed after 20 min was quantified at 650 nm. For all the assays, kinetic constants for the steady state catalysis were obtained by fitting the reaction curves to the Michaelis-Menten equation using the nonlinear regression module of Sigma plot software (Systat Software, Inc.).

[2] = target: T2, DLAR D1 D2HSS (Drosophila melanogaster, UniProt P16621, C1961S); type: biochemical; settings: 0.01 µM protein; for Km / Kcat / Kcat/Km: 25 mM citrate pH 6.0, 15 min at 25°C, malachite green; for Vmax: 25 mM citrate buffer pH 6.0, 100 mM NaCl, 2 mM DTT, 15 min at 25°C, Biomol Green, 650 nm, Michaelis-Menten fit
T2 construct: DLAR 1448-2029; His tag (pET-15b or pET-22b); made in house; host or cells: E. coli BL21(DE3)
T2 sequence (P16621 1448-2029 C1961S): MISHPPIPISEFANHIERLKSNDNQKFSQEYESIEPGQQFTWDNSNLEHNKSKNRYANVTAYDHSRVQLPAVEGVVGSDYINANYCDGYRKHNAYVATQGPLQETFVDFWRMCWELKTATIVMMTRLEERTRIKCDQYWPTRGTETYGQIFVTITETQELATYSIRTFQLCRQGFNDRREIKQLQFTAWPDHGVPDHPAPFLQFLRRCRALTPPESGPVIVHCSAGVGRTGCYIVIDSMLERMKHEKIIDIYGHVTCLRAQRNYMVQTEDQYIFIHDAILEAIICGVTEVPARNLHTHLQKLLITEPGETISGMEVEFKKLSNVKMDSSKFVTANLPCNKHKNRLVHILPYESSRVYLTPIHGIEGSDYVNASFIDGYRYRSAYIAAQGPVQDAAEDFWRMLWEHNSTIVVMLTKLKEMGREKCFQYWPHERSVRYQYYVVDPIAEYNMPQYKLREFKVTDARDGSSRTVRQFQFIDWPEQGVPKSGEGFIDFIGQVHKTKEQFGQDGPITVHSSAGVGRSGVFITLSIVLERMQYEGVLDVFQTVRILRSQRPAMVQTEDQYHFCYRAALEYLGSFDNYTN
Excerpt: as §1, §2

[3] = target: T3, PTP99A D1D2 (Drosophila melanogaster, UniProt P35832); assay: Dephosphorylation of phosphotyrosine peptides (malachite green), PTP99A D1D2; settings: for Vmax / Kcat / Kcat/Km / Km: 0.01 µM protein; for Vmax: 25 mM citrate buffer pH 6.0, 100 mM NaCl, 2 mM DTT, 15 min at 25°C, Biomol Green, 650 nm, Michaelis-Menten fit; for Kcat / Kcat/Km / Km: 25 mM citrate pH 6.0, 15 min at 25°C, malachite green; for substrate preference: order of peptide substrates, PTP99A D1D2
T3 sequence (P35832 450-1050): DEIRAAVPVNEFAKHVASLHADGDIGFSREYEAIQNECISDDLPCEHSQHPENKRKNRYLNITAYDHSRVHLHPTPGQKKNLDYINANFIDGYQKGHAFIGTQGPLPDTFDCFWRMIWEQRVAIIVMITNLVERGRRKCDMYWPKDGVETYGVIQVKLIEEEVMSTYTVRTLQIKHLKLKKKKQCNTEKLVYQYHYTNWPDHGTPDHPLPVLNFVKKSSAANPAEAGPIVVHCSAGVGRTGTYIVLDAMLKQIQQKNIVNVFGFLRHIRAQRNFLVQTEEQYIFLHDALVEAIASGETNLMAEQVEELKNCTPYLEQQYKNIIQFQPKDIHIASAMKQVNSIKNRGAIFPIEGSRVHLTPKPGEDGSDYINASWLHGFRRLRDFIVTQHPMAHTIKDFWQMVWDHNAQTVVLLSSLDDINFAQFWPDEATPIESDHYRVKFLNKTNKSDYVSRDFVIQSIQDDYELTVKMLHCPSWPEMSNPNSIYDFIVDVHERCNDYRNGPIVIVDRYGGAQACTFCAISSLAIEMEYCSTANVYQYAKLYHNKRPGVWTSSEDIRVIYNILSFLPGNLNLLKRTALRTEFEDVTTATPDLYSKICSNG
Excerpt: as §1, §2

[4] = target: T4, DLAR D2 (Drosophila melanogaster, UniProt P16621); assay: Peptide preference of the DLAR D2 domain from ratios of kcat/Km (D1D2 vs D1); type: biochemical; settings: order of peptide substrates, from comparison of kcat/Km of D1D2 with D1
T4 construct: DLAR 1728-2029; His tag (pET-15b or pET-22b); made in house; host or cells: E. coli BL21(DE3)
T4 sequence (P16621 1728-2029): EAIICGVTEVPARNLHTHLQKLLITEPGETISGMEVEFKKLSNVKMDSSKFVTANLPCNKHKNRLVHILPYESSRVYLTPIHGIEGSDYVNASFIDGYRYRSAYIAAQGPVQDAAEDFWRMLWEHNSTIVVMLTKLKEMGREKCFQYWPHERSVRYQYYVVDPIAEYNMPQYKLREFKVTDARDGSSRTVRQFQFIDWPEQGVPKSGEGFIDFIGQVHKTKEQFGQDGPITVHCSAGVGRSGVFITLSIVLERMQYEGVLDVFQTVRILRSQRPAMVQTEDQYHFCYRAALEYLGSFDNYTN
Procedure: as §2
The difference between the most and least preferred substrate in the case of DLAR D1D2 was much less (∼16.0×10^4 sec^−1 M^−1 between Cuticle and Myospheroid peptides) when compared to DLAR D1 alone (∼130.0×10^4 sec^−1 M^−1 between Insulin Receptor and Abelson peptides). […] A more comprehensive study of this activation mechanism is being reported elsewhere.

Compound | Km [1] [µM] | Km [2] [µM] | Vmax [3] [µmol/min/mg] | Kcat [3] [s⁻¹] | Kcat/Km [3] | Km [3] [µM] | substrate preference [3] | Vmax [1] [µmol/min/mg] | Kcat [1] [s⁻¹] | Kcat/Km [1] | Km ([1]; read-out: Km) [µM] | substrate preference [1] | peptide preference [4] | Vmax [2] [µmol/min/mg] | Kcat [2] [s⁻¹] | Kcat/Km [2] | Km ([2]; read-out: Km) [µM]
CC(C)C[C@H](NC(=O)[C@H](C)NC(=O)CNC(=O)[C@H](Cc1ccc(OP(=O)(O)O)cc1)NC(=O)[C@H](CC(=O)O)NC(=O)[C@@H]1CCCN1C(=O)[C@H](CCC(=O)O)NC(=O)[C@H](C)NC(=O)[C@@H](N)[C@@H](C)O)C(=O)N[C@@H](Cc1ccc(O)cc1)C(=O)N[C@@H](CCC(=O)O)C(=O)O [Cuticle peptide] (H-TAEPD[pY]GALYE-OH) | 105 ± 12.4 | 162 ± 13.8 | – | – | – | – | – | – | – | – | – | – | – | – | – | – | –
CDDS[pY]FGNKC (cysteine pairing not given here) [Myospheroid peptide, phosphotyrosine peptide CDDSpYFGNKC from PeptideMine server, obtained from GL Bioscience, >95% pure] | – | – | 1.09 ± 0.03 | 1.35 ± 0.03 | 44.1 ± 1.22 x 10^4 sec^-1M^-1 | 3.06 ± 0.36 | Insulin Receptor peptide>Cuticle peptide>Myospheroid>Abelson peptide>Nervous fingers peptide | 13.86 ± 0.39 | 16.53 ± 0.47 | 14.28 ± 0.05 x 10^4 sec^-1M^-1 | 116 ± 8.69 | Cuticle peptide>Insulin receptor peptide>Nervous fingers peptide>Abelson peptide>Myospheroid peptide | Insulin Receptor peptide>Nervous fingers peptide>Cuticle peptide>Myospheroid peptide>Abelson peptide | 3.11 ± 0.12 | 3.7 ± 0.15 | 5.79 ± 0.08 x 10^4 sec^-1M^-1 | 63.9 ± 7.99
RDDT[pY]TAHAG [Abelson peptide, phosphotyrosine peptide RDDTpYTAHAG from PeptideMine server, obtained from GL Bioscience, >95% pure] | – | – | 2.59 ± 0.07 | 3.21 ± 0.08 | 19.97 ± 0.15 x 10^4 sec^-1M^-1 | 16.3 ± 1.55 | Insulin Receptor peptide>Cuticle peptide>Myospheroid>Abelson peptide>Nervous fingers peptide | 3.39 ± 0.19 | 4.05 ± 0.22 | 17.96 ± 0.16 x 10^4 sec^-1M^-1 | 22.6 ± 4.88 | Cuticle peptide>Insulin receptor peptide>Nervous fingers peptide>Abelson peptide>Myospheroid peptide | Insulin Receptor peptide>Nervous fingers peptide>Cuticle peptide>Myospheroid peptide>Abelson peptide | 0.6 ± 0.01 | 0.72 ± 0.01 | 5.82 ± 0.07 x 10^4 sec^-1M^-1 | 12.4 ± 1.07
VIGD[pY]VCRLCK (cysteine pairing not given here) [Nervous Fingers peptide, phosphotyrosine peptide VIGDpYVCRLCK from PeptideMine server, obtained from GL Bioscience, >95% pure] | – | – | 8.89 ± 0.38 | 11.01 ± 0.46 | 6.12 ± 0.12 x 10^4 sec^-1M^-1 | 180 ± 15 | Insulin Receptor peptide>Cuticle peptide>Myospheroid>Abelson peptide>Nervous fingers peptide | 12.41 ± 0.68 | 14.79 ± 0.81 | 19.59 ± 0.11 x 10^4 sec^-1M^-1 | 75.5 ± 12.5 | Cuticle peptide>Insulin receptor peptide>Nervous fingers peptide>Abelson peptide>Myospheroid peptide | Insulin Receptor peptide>Nervous fingers peptide>Cuticle peptide>Myospheroid peptide>Abelson peptide | 7.9 ± 0.35 | 9.42 ± 0.42 | 7.02 ± 0.07 x 10^4 sec^-1M^-1 | 134 ± 14.9
